From US8318811B2, “Method for treating an inflammatory bowel disease using 2-amino-2-[4-(3-benzyloxyphenylthio)-2-chlorophenyl]ethyl-1,3-propanediol or a salt thereof” (Kyorin Pharmaceutical Co., Ltd., priority 2006, dated 2012) come the findings set out here.

SMILES strings stand for the structures. Where a name gives a salt, the structure may show the parent alone.

In assay [1] the test system is Dextran Sodium Sulfate-Induced Colitis in Mice. As to the kind of experiment: Dextran sodium sulfate-induced colitis in mice. It counts as in vivo, BALB/C male mice. The settings on record: for Length of large intestine / myeloperoxidase activity in large intestine: DSS colitis, average ± standard error. How it is done: Colitis was induced in BALB/C male mice by allowing animals To drink a5% aqueous solution of dextran sodium sulfate (DSS) (average molecular weight=5000) for 7 days [Kitajima, S. et. al., Exp Anim, Vol. 49, No. 1: 9-15 (2000)]. KRP-203 dissolved in distilled water (at 0.01, 0.03 and 0.1 mg/kg) was orally administered once a day for 8 days, starting the day before the administration of DSS solution. One group was administered distilled water as a placebo.
8 days after the start of the DSS period, mice were anesthetized With diethylether and sacrificed by cervical dislocation. The large intestine (the segment from colon to anus) was removed from each animal. Because it is known that the ingestion of DSS solution causes colitis in mice that causes a decrease in the length of large intestine [Okayasu, I. et. al., Gastroenterology, Vol. 98: 694-702 (1990)], the length of the large intestine from the colon to anus was measured with a caliper. The large intestine was then cut open longitudinally to expose the lumen and the content was washed off with physiological saline. The specimens were assayed and compared for the activity of myeloperoxidase, a marker of inflammation in colitis [Grisham, M B. et. al., Methods Enzymol, Vol. 186: 729-742 (1990)]. […]
Tacrolimus was suspended in a 0.5% aqueous solution of carboxymethylcellulose sodium (CMC-Na) (at 3 mg/kg) and was administered once a day for 8 days, starting the day before the start of the DSS period. One group was administered 0.5% aqueous CMC-Na solution as a placebo. The increase in the myeloperoxidase activity in large intestine was suppressed by 37% in the 3 mg/kg group as compared to the placebo group.

The subject of a further assay is IL-10 knockout mice. The assay can be described thus: Effect on colitis in IL-10 knockout mice (histological score of large intestine). It counts as in vivo, B6.129P2-IL10<tm1Cgn>/J (IL-10 knockout) mice. Particulars: 0.1 mg/kg orally once a day for 4 weeks; sum of proximal, middle and distal large intestine scores; average ± standard error. Here is the method:
B6.129P2-IL10^<tm1Cgn>/J (IL-10 knockout) mice (male, 5-6 week old) were obtained for the test. KRP-203 dissolved in distilled water was orally administered at a dose of 0.1 mg/kg once a day for 4 weeks, starting 8 weeks after the animals were obtained. One group was administered distilled water alone as a placebo. Following the administration period, the animals were dissected to remove large intestine, which was then fixed in formalin. Subsequently, tissue slices were prepared from the formalin-fixed large intestine and were stained with hematoxylin and eosin. The proximal, middle, and distal segments of the large intestine were then histologically scored according to the standard procedure (Berg D J, et al., Gastroenterology, 123: 1527-1542 (2002)). The scores for the three segments were added together to determine the histological scores for individual animals. The results are given in average ±standard error.

Where [2] appears, read: 0.01 mg/kg orally once a day for 8 days.
The mark [3] stands for this setting: 0.03 mg/kg orally once a day for 8 days.
Setting [4] is: 0.1 mg/kg orally once a day for 8 days.

Turning to `NC(CO)(CO)CCc1ccc(Sc2cccc(OCc3ccccc3)c2)cc1Cl` [KRP-203, 2-amino-2-[4-(3-benzyloxyphenylthio)-2-chlorophenyl]ethyl-1,3-propanediol hydrochloride], the results for the “suppression of the increase in the myeloperoxidase activity in large intestine as compared to the placebo group” value in assay [1] (0.01 mg/kg group), in assay [1] (0.03 mg/kg group) and in assay [1] (0.1 mg/kg group) were 51%, 69% and 62%, respectively. In addition, the “Length of large intestine” value in assay [1] (setting [2]) is listed as 67.4 ± 1.4 mm; in assay [1] (setting [3]), 72.7 ± 1.5 mm; in assay [1] (setting [4]), 71.4 ± 1.4 mm. For the same molecule, the “myeloperoxidase activity in large intestine” value is given as 55.8 ± 16.2 U/g protein in assay [1] (setting [2]), 36.8 ± 5.9 U/g protein in assay [1] (setting [3]) and 44.4 ± 6.4 U/g protein in assay [1] (setting [4]). Also, the “Histological Score” value in the assay on IL-10 knockout mice is 0.3 ± 0.2.

In the case of `C=CC[C@@H]1/C=C(\C)C[C@H](C)C[C@H](OC)[C@H]2O[C@@](O)(C(=O)C(=O)N3CCCC[C@H]3C(=O)O[C@H](/C(C)=C/[C@@H]3CC[C@@H](O)[C@H](OC)C3)[C@H](C)[C@@H](O)CC1=O)[C@H](C)C[C@@H]2OC` [Tacrolimus, tacrolimus, reference compound], the “suppression of the increase in the myeloperoxidase activity in large intestine as compared to the placebo group” value in assay [1] (3 mg/kg group, suspended in 0.5% CMC-Na, once a day for 8 days) turned out to be 37%.
